The subject of one series is Phakopsora pachyrhizi. Briefly: In vivo preventive test on Phakopsora pachyrhizi (soybean rust). As to conditions: for protection: dose of 10 ppm of active ingredient. Here is the method:
In Vivo Preventive Test on Phakopsora pachyrhizi (Soybean Rust)
Solvent: 24.5 parts by weight of acetone • 24.5 parts by weight of N,N-dimethylacetamide
Emulsifier: 1 part by weight of alkylaryl polyglycol ether
To produce a suitable preparation of active compound, 1 part by weight of active compound is mixed with the stated amounts of solvent and emulsifier, and the concentrate is diluted with water to the desired concentration.
To test for preventive activity, young plants are sprayed with the preparation of active compound at the stated rate of application. After the spray coating has dried on, the plants are inoculated with an aqueous spore suspension of the causal agent of soybean rust (Phakopsora pachyrhizi) and stay for 24 h without light in an incubation cabinet at approximately 24° C. and a relative atmospheric humidity of 95%.
The plants remain in the incubation cabinet at approximately 24° C. and a relative atmospheric humidity of approximately 80% and a day/night interval of 12 h.
The test is evaluated 7 days after the inoculation. 0% means an efficacy which corresponds to that of the untreated control, while an efficacy of 100% means that no disease is observed.

In a further series the test system is Uromyces appendiculatus. Briefly: In vivo preventive test on Uromyces appendiculatus (bean rust). Particulars: for protection: dose of 100 and 10 ppm of active ingredient. Here is the method:
In Vivo Preventive Test on Uromyces appendiculatus (Bean Rust)
(§1) Solvent: 5% by volume of Dimethyl sulfoxide • 10% by volume of Acetone
(§2) Emulsifier: 1 μL of Tween® 80 per mg of active ingredient
The active ingredients are made soluble and homogenized in a mixture of Dimethyl sulfoxide/Acetone/Tween® 80 and then diluted in water to the desired concentration.
The young plants of bean are treated by spraying the active ingredient prepared as described above. Control plants are treated only with an aqueous solution of Acetone/Dimethyl sulfoxide/Tween® 80.
After 24 hours, the plants are contaminated by spraying the leaves with an aqueous suspension of Uromyces appendiculatus spores. The contaminated bean plants are incubated for 24 hours at 20° C. and at 100% relative humidity and then for 10 days at 20° C. and at 70-80% relative humidity.
(§3) The test is evaluated 11 days after the inoculation. 0% means an efficacy which corresponds to that of the control plants while an efficacy of 100% means that no disease is observed.

A further series relates to Puccinia recondita. Briefly: In vivo preventive test on Puccinia recondita (brown rust on wheat). As to conditions: for protection: dose of 100 and 10 ppm of active ingredient. Here is the method:
In Vivo Preventive Test on Puccinia recondita (Brown Rust on Wheat)
as §1, §2
The active ingredients are made soluble and homogenized in a mixture of Dimethyl sulfoxide/Acetone//Tween® 80 and then diluted in water to the desired concentration.
The young plants of wheat are treated by spraying the active ingredient prepared as described above. Control plants are treated only with an aqueous solution of Acetone/Dimethyl sulfoxide/Tween® 80. After 24 hours, the plants are contaminated by spraying the leaves with an aqueous suspension of Puccinia recondita spores. The contaminated wheat plants are incubated for 24 hours at 20° C. and at 100% relative humidity and then for 10 days at 20° C. and at 70-80% relative humidity.
as §3

Series [1] is described as follows: log P by HPLC on a reversed-phase column (C 18), EEC Directive 79/831 Annex V.A8. As to conditions: for logP: HPLC, reversed-phase column (C 18), 40° C., linear gradient 10% to 90% acetonitrile; for chromatographic logP: reversed-phase HPLC column (C 18). The class given is physicochemical. The method, boiled down: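 Reversed-phase C18 HPLC at 40° C, 0.1% aqueous formic acid/acetonitrile gradient from 10% to 90% acetonitrile. log P derived from retention times by linear interpolation between unbranched alkan-2-ones (3–16 carbons) of known log P.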

Setting [2] is: 0.1% aqueous formic acid and acetonitrile.
Setting [3] is: Table 4 (aldehydes of formula IV), HPLC C 18, 40° C., 0.1% aqueous formic acid and acetonitrile.

Broadly, the logP is the decadic logarithm of the partition coefficient of the neutral form, usually between octanol and water. Usually chromatographic logP stands for a lipophilicity value derived from retention on a column. Higher therefore signals higher lipophilicity.

Values joined by “and” are separate entries in the source; they are usually repeats but may differ in a detail not shown here. Identical values can stand only once.

`Cc1ccc(C(F)(F)F)c(CN(C(=O)c2c(C(F)F)nn(C)c2F)C2CC2)c1` [12 from WO-2010/130767, N-cyclopropyl-3-(difluoromethyl)-5-fluoro-1-methyl-N-[5-methyl-2-(trifluoromethyl)benzyl]-1H-pyrazole-4-carboxamide, reference compound] registered an Efficacy with Phakopsora pachyrhizi (Table C1, dose 10 ppm) of 0%. In addition, the protection result with Phakopsora pachyrhizi was “no protection”.
Turning to `Cn1nc(C(F)F)c(C(=O)N(Cc2cc(Cl)ccc2C2CC2)C2CC2)c1F` [41 from WO-2010/130767, N-(5-chloro-2-cyclopropylbenzyl)-N-cyclopropyl-3-(difluoromethyl)-5-fluoro-1-methyl-1H-pyrazole-4-carboxamide, reference compound], the Efficacy in the series on Phakopsora pachyrhizi (Table C2, dose 10 ppm) was found to be 0%. The protection entry with Phakopsora pachyrhizi is reported as “no protection”.
In the case of `Cn1nc(C(F)F)c(C(=O)N(Cc2c(C3CC3)ccc(F)c2F)C2CC2)c1F` [54 from WO-2010/130767, N-cyclopropyl-N-(6-cyclopropyl-2,3-difluorobenzyl)-3-(difluoromethyl)-5-fluoro-1-methyl-1H-pyrazole-4-carboxamide, reference compound], the Efficacy in the series with Uromyces appendiculatus (Table B1, dose 10 ppm) turned out to be 29%; in the series on Uromyces appendiculatus (Table B1, dose 100 ppm), 100%. In addition, the protection result with Uromyces appendiculatus is reported as “total to poor (less than 30%) protection”.
In the case of `Cn1nc(C(F)F)c(C(=O)N(Cc2cc(F)ccc2C2CC2)C2CC2)c1F` [123 from WO-2010/130767, N-cyclopropyl-N-(2-cyclopropyl-5-fluorobenzyl)-3-(difluoromethyl)-5-fluoro-1-methyl-1H-pyrazole-4-carboxamide, reference compound], in the series with Phakopsora pachyrhizi (Table C3, dose 10 ppm), the Efficacy stood at 0%. Also, the protection result in the series with Phakopsora pachyrhizi was “no protection”.
Regarding `Cn1nc(C(F)F)c(C(=O)N(Cc2cc(F)ccc2C2(C)CC2)C2CC2)c1Cl` [I.8 from WO-2013/156559, 5-chloro-N-cyclopropyl-3-(difluoromethyl)-N-[5-fluoro-2-(1-methylcyclopropyl)benzyl]-1-methyl-1H-pyrazole-4-carboxamide, reference compound], the Efficacy is listed as 14% with Uromyces appendiculatus (Table B2, dose 10 ppm); 95% with Uromyces appendiculatus (Table B2, dose 100 ppm); 38% in the series with Puccinia recondita (Table A1, dose 10 ppm); 94% with Puccinia recondita (Table A1, dose 100 ppm). The values for the protection entry with Uromyces appendiculatus (listed as I.8) and in the series with Puccinia recondita (listed as I.8) were “total to poor (less than 20%) protection” and “total to average (less than 40%) protection”, respectively.
With `Cn1nc(C(F)F)c(C(=O)N(Cc2cc(F)ccc2C2(C)CC2)C2CC2)c1F` [I.066], the Efficacy in the series on Uromyces appendiculatus (Table B1, dose 10 ppm) amounted to 100%; with Uromyces appendiculatus (Table B1, dose 100 ppm) it was 100%; with Phakopsora pachyrhizi (Table C3, dose 10 ppm), 89%. Moreover, the protection entry in the series with Uromyces appendiculatus was “total protection”. Moreover, the logP in series [1] (setting [2]) is listed as 3.89.
As to `Cn1nc(C(F)F)c(C(=O)N(Cc2cc(F)ccc2C2(C)CC2)C2CC2)c1Cl` [I.067], the Efficacy in the series on Uromyces appendiculatus (Table B2, dose 10 ppm) came out at 93%; in the series with Uromyces appendiculatus (Table B2, dose 100 ppm), 100%; in the series on Puccinia recondita (Table A1, dose 10 ppm), 98%; in the series with Puccinia recondita (Table A1, dose 100 ppm), 100%. In addition, the protection result in the series with Uromyces appendiculatus and in the series on Puccinia recondita was “at least 90%” in each case. In series [1] (setting [2]), the logP was found to be 4.04.
Take `Cc1ccc(C2(C)CC2)c(CN(C(=O)c2c(C(F)F)nn(C)c2F)C2CC2)c1` [I.071]: in series [1] (setting [2]), the log partition coefficient (logP) came out at 4.19. In the series with Phakopsora pachyrhizi (Table C1, dose 10 ppm), this compound displayed an Efficacy of 99%. The protection entry with Phakopsora pachyrhizi is “at least 90%”.
In the case of `CCC1(c2cc(C)c(F)cc2CN(C(=O)c2c(C(F)F)nn(C)c2F)C2CC2)CC1` [I.106], the logP in series [1] (setting [2]) worked out at 4.67. Moreover, in the series on Phakopsora pachyrhizi (Table C3, dose 10 ppm), the Efficacy was 100% and 98%.
In turn, `CCC1(c2ccc(Cl)cc2CN(C(=O)c2c(C(F)F)nn(C)c2F)C2CC2)CC1` [I.110] yielded a logP in series [1] (setting [2]) of 4.59. In the series with Phakopsora pachyrhizi (Table C2, dose 10 ppm), the Efficacy was determined as 98%. Moreover, the protection result in the series on Phakopsora pachyrhizi is “at least 90%”.
As to `Cn1nc(C(F)F)c(C(=O)N(Cc2cc(F)ccc2C2(C(F)F)CC2)C2CC2)c1F` [I.151, N-cyclopropyl-3-(difluoromethyl)-N-{2-[1-(difluoromethyl)-cyclopropyl]-5-fluorobenzyl}-5-fluoro-1-methyl-1H-pyrazole-4-carboxamide], the Efficacy worked out at 100% in the series on Uromyces appendiculatus (Table B1, dose 10 ppm) and 100% with Uromyces appendiculatus (Table B1, dose 100 ppm). Moreover, the protection result in the series with Uromyces appendiculatus is recorded as “total protection”. In addition, the chromatographic logP in series [1] (preparation examples) turned out to be 3.39.
Compound `O=Cc1cc(Cl)ccc1C1(C(=O)O)CC1` [IV.24, 1-(4-chloro-2-formylphenyl)cyclopropanecarboxylic acid] returned a chromatographic logP in series [1] (setting [3]) of 1.91.
The same measure, in the same setting: the figure for `COC(=O)C1(c2ccc(Cl)cc2C=O)CC1` [IV.25, methyl 1-(4-chloro-2-formylphenyl)cyclopropanecarboxylate] is 2.68.
The compound `CC1(c2c(Cl)cccc2CBr)CC1` [V.01, 1-(bromomethyl)-3-chloro-2-(1-methylcyclopropyl)benzene] came in with a chromatographic logP in series [1] (Table 5 (formula V), HPLC C 18, 40° C., 0.1% aqueous formic acid and acetonitrile) of 4.86.

The values above are taken from patent US10070645B2, “N-cycloalkyl-N-{[2-(1-substitutedcycloalkyl)phenyl]methylene}-(thio)carboxamide derivatives” (BAYER CROPSCIENCE AKTIENGESELLSCHAFT, priority 2013, dated 2018).
